Source: the NIST ThermoML archive (doi:10.1016/j.jct.2011.08.017)

Tests used:
[1] = Molar enthalpy of transition or fusion; conditions: Crystal; DSC
[2] = for vapor or sublimation pressure: Closed cell (Static) method; for Normal melting temperature: DTA

c1c[nH]cn1 [1H-imidazole]
Conditions | Molar enthalpy of transition or fusion [kcal/mol]
[1] | 3.13

[2]
Conditions | vapor or sublimation pressure [kPa]
303.99 K, Crystal | 0.00058
306.97 K, Crystal | 0.00079
309.99 K, Crystal | 0.00108
312.98 K, Crystal | 0.00145
315.94 K, Crystal | 0.00195
318.92 K, Crystal | 0.00263
321.97 K, Crystal | 0.0035
324.96 K, Crystal | 0.00469
327.95 K, Crystal | 0.00621
330.92 K, Crystal | 0.00819
333.9 K, Crystal | 0.01063
333.9 K, Metastable liquid | 0.01485
336.88 K, Crystal | 0.01377
336.89 K, Metastable liquid | 0.01859
339.86 K, Crystal | 0.01782
339.86 K, Metastable liquid | 0.02311
342.84 K, Crystal | 0.02289
342.84 K, Metastable liquid | 0.02848
345.81 K, Metastable liquid | 0.03509
345.83 K, Crystal | 0.02923
348.8 K, Crystal | 0.03701
348.8 K, Metastable liquid | 0.04297
351.75 K, Metastable liquid | 0.05222
351.77 K, Crystal | 0.04693
354.75 K, Crystal | 0.0592
354.76 K, Metastable liquid | 0.06354
357.72 K, Crystal | 0.07394
357.72 K, Metastable liquid | 0.07682
360.69 K, Metastable liquid | 0.09288
363.67 K, Liquid | 0.1112
366.66 K, Liquid | 0.1336
369.63 K, Liquid | 0.1596
372.6 K, Liquid | 0.1912
375.56 K, Liquid | 0.2249
378.51 K, Liquid | 0.2655
381.51 K, Liquid | 0.3134
384.48 K, Liquid | 0.3688

Conditions | Normal melting temperature [°C]
[2], Crystal | 86.2

Cn1cnc(Cl)c1Cl [4,5-dichloro-1-methyl-1H-imidazole]
Conditions | Molar enthalpy of transition or fusion [kcal/mol]
[1] | 4.06

[2]
Conditions | vapor or sublimation pressure [kPa]
288.03 K, Crystal | 0.00048
290.06 K, Crystal | 0.0006
292.08 K, Crystal | 0.00076
294.06 K, Crystal | 0.00096
296.06 K, Crystal | 0.0012
298.04 K, Crystal | 0.00149
300.05 K, Crystal | 0.00185
302.01 K, Crystal | 0.00231
303.99 K, Crystal | 0.00286
306.02 K, Crystal | 0.00352
307.96 K, Crystal | 0.0043
309.97 K, Crystal | 0.00527
311.98 K, Crystal | 0.00646
313.95 K, Crystal | 0.00782
315.93 K, Crystal | 0.00957
317.91 K, Crystal | 0.01164
319.99 K, Crystal | 0.01413
322 K, Crystal | 0.01693
323.97 K, Crystal | 0.02049
325.97 K, Crystal | 0.02463
329.93 K, Metastable liquid | 0.03434
331.93 K, Liquid | 0.03936
333.9 K, Liquid | 0.04506
335.89 K, Liquid | 0.05151
337.88 K, Liquid | 0.05882
339.87 K, Liquid | 0.06701
341.86 K, Liquid | 0.07636
343.84 K, Liquid | 0.08631
345.82 K, Liquid | 0.09809
347.8 K, Liquid | 0.1106
349.78 K, Liquid | 0.1248

Conditions | Normal melting temperature [°C]
[2], Crystal | 57.0
